Test results taken from patent EP1056700B1, “MEDICINAL USES OF PHENYLALKANOLS AND DERIVATES” (ZingoTX Pty Ltd, priority 1997, dated 1999).

What was measured:
SR Ca^2+-ATPase = biological target: T1, SR Ca^2+-ATPase (Canis lupus familiaris, UniProt O46674); experiment: Sarcoplasmic reticulum Ca^2+-ATPase assay; assay type: biochemical, dog; conditions: for SR Ca^2+-ATPase Activity: 0 µM = 100, dog cardiac SR; for IC50: read-out: SR Ca^2+-ATPase IC50 = conc. for 50% inhibition
T1 construct: Effect of gingerols and their derivatives on the Ca^2+-ATPase activity of dog cardiac SR; from tissue; host or cells: dog heart (cardiac sarcoplasmic reticulum)
Experimental: A portion at each concentration (54 µl) was aliquoted into 4 designated wells of the microplate (two of four wells were controls). Each well was mixed with ATP solution (20 mM, 6 µl), except the controls, using an 8 channel pipette. The controls were assayed in the absence of ATP or calcium.
The plate was incubated with the lid on, for 30 min at 37°C, colour reagent (160 µl) was then added and mixed with citrate solution (34%, 30 µl). The plate was developed at room temperature for 30 min then absorbance at 655 nm was read from the microplate reader. The Ca^2+-ATPase activity was quantitated, from a Pi standard curve, as concentration of liberated inorganic phosphate.
Stock solutions (10 mM) of test substance were prepared in DMSO, then series dilutions were made either in DMSO or in 1M HEPES to produce the dose-response concentrations. The maximum concentration of DMSO in the final assay solution was 2.5%.
Each concentration of test substance was assayed in duplicate in the presence and absence of ATP or calcium. Phosphate standards are run on each plate as follows:
Effect of gingerols and their derivatives on the Ca^2+-ATPase activity of dog cardiac SR.

guinea pig atria = experiment: Organ bath assay on isolated guinea pig atria (rate and force of contraction); conditions: guinea pig atria; for HEART RATE / FORCE OF CONTRACT^n: result in words
Method in brief: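 Atria from 3-4-week-old male guinea pigs mounted in Krebs-Henseleit solution gassed with carbogen, under 1 g tension, stabilised 20 min. Rate and force of contraction recorded. Compounds in DMSO tested up to 50 µM maximum, final DMSO 2.5 %.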

DRG neuronal cells = experiment: Peak [Ca^2+]i transients in cultured dorsal root ganglion neurons (Fura-2); assay type: cell-based, rat; conditions: 10 µM applied for 1 min, 2 mM Ca^2+
Experimental: DRG from neonatal (3-5 days old) rat or adult Sprague-Dawley rats were incubated in Hanks CMF saline with 0.05% collagenase and 0.25% trypsin for 25 min at 37° C. Individual cells were obtained by trituration with fire polished Pasteur pipettes of diminishing diameters. Neurones were isolated from the cell suspension in 30% Percoll and then plated on collagen coated coverslips or in 24-well plates, then cultured in neurobasal medium with B27 supplement, 50 ng/ml 2.5 S nerve growth factor, 2 mM 1-glutamine and 100 U/ml penicillin/streptomycin. Cultures were maintained at 37° C with 5% CO2. 30% Percoll increases the percentage of capsaicin-sensitive DRG neurones up to 70%. For peak [Ca^2+]i transients measurements, cells on coverslips were incubated with 5 µM Fura-2 AM for 30 min at 37° C. The coverslips were then mounted on a chamber attached to a fast sample application perfusion system which allows changing solutions in the second range. Recordings were made on the stage of a Nikon Diaphot inverted microscope fitted with a Nikon 40 x Fluo (NA 0.85) DL Ph3 or 40 x Fluo (NA 1.3) oil objective. [Ca^2+]i was calculated from dual excitation wavelength (340/380 nm) fluorescence measurements following an intracellular calibration procedure by the Grynkiewicz equation, using MCID M2/M4 v.3.0 (Imaging Res. Inc.) software. Cells were continuously perfused with a solution consisting of 140 mM NaCl, 2 mM CaCl2, 5 mM KCl, 20 mM HEPES, 10 mM glucose, pH 7.4. To study KCl evoked depolarisation, 50 mM NaCl was replaced by equimolar KCl. Cytoplasmic localisation of Fura-2 was tested with the Mn^2+ quenching technique (Dedov and Roufogalis, 1998). All experiments were performed at room temperature (20-23°C).
Typical changes in [Ca^2+]i upon depolarisation were evoked by 50 mM KCl and by application of 1 µM capsaicin; both were applied for 30 sec. Capsaicin-evoked peak [Ca^2+]i transients are characterised by a fast rise and long-steady state [Ca^2+]i clearance from the cytoplasm. In capsaicin-sensitive cells the half-time of cytoplasmic Ca^2+ clearance was proportional to the amplitudes of peak [Ca^2+]i transients.
To examine the effect of gingerol derivatives, one or several compounds in succession at a concentration of 10 µM were applied for 1 min to the DRG neuronal cells followed by washing out for 4 min with physiological solution. To the capsaicin-sensitive cells, 10 µM capsaicin and 50 mM KCl were applied, respectively, to confirm the viability of the cells. In addition, morphological appearances of the cells were also examined at the end of experiment. […]

rat mesenteric artery = experiment: Vasodilation on rat mesenteric small arteries; conditions: for EC50: Rattus norvegicus, relaxation of small arteries (200-300 µm) precontracted with endothelin; for relaxation of rat mesenteric artery: result in words
From the text: Small arteries (200-300 µm in diameter) isolated from rat mesentery were precontracted with endothelin prior to addition of the test substances and tested for relaxation.

Platelet rich plasma = experiment: Platelet aggregation: [^3H]-serotonin release from platelet rich plasma, arachidonic acid initiated; assay type: cell-based; conditions: Homo sapiens, activation by EC50 concentration of arachidonic acid
Experimental: Blood was collected from healthy volunteers who had taken no medication in the previous two weeks. The anticoagulant used was 3.8 % trisodium citrate. Platelet rich plasma was prepared and incubated with [^3H]-serotonin. This was followed by addition of gingerol analogues. Platelet activation was initiated using the EC50 concentration for arachidonic acid. The percentage of [^3H]-serotonin release was measured using a liquid scintillation counter. Then, dose-response curves were established and IC50 values were obtained.

T1 sequence (O46674 whole entry): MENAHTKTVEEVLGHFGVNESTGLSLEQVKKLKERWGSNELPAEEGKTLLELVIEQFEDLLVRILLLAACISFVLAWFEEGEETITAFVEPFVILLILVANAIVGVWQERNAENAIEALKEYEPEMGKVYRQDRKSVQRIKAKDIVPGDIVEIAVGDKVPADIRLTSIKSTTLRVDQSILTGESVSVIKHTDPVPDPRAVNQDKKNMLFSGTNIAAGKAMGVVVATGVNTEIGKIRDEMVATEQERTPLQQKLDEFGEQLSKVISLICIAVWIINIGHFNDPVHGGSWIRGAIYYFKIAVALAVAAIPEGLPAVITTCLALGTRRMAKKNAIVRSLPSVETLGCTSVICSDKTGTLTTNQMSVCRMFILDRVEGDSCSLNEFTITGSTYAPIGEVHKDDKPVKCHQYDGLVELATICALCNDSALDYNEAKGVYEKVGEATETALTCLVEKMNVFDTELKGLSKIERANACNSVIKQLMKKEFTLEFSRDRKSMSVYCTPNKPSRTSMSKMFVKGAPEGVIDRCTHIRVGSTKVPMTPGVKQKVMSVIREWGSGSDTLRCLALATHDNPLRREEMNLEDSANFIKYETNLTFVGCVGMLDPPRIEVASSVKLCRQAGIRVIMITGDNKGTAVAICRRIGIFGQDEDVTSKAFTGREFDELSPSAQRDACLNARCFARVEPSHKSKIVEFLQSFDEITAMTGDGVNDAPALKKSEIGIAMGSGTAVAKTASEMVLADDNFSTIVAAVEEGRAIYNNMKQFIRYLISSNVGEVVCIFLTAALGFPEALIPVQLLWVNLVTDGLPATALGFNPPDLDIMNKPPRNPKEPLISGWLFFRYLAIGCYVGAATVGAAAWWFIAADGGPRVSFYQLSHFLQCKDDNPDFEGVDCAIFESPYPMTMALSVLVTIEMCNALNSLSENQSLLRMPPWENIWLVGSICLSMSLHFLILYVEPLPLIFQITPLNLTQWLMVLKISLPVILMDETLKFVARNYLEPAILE

| SMILES | SR Ca^2+-ATPase Activity (SR Ca^2+-ATPase; 5 µM) | SR Ca^2+-ATPase Activity (SR Ca^2+-ATPase; 10 µM) | SR Ca^2+-ATPase Activity (SR Ca^2+-ATPase; 25 µM) | SR Ca^2+-ATPase Activity (SR Ca^2+-ATPase; 50 µM) | IC50 (SR Ca^2+-ATPase) [µM] | HEART RATE (guinea pig atria) | Number of capsaicin-sensitive cells responding (DRG neuronal cells) | Peak [Ca^2+]i (Average ±SD) (DRG neuronal cells) [nM] | SR Ca^2+-ATPase Activity (SR Ca^2+-ATPase; 1 µM) | SR Ca^2+-ATPase ↑ increase or stimulation (SR Ca^2+-ATPase; @ 50 µM) | IC50 (Platelet rich plasma) [µM] | FORCE OF CONTRACT^n (guinea pig atria) | also measured |
| --- | --- | --- | --- | --- | --- | --- | --- | --- | --- | --- | --- | --- | --- |
| CCCCCCCC(O)CCCCc1ccc(O)c(OC)c1 (stereo not shown) [1-(4-hydroxy-3-methoxyphenyl)dodecan-5-ol] | 113 | 136 | 158 | 126 | ~25 | ↑weakly | 0 out of 5 | 0 |  |  |  |  | SR Ca^2+-ATPase Activity (SR Ca^2+-ATPase; 100 µM): 87; SR Ca^2+-ATPase Activity (SR Ca^2+-ATPase; 200 µM): 18; SR Ca^2+-ATPase ↑ increase or stimulation (SR Ca^2+-ATPase; @ 25 µM): ↑57% @ 25; FORCE OF CONTRACT^n ↑ increase (guinea pig atria; @ 30 (µM)): ↑79% @ 30 |
| CCCCCCCC(=O)CC(O)CCc1ccc(O)c(OC)c1 (stereo not shown) [3-hydroxy-1-(4-hydroxy-3-methoxyphenyl)dodecan-5-one] |  |  |  |  | > 100 |  | 5 | 167 ± 105 |  |  |  |  | FORCE OF CONTRACT^n ↑ increase (guinea pig atria; @ 5 (µM)): ↑270% @ 5; FORCE OF CONTRACT^n ↑ increase (guinea pig atria; @ 10 (µM)): ↑130% @ 10; HEART RATE ↑ increase (guinea pig atria; @ 10 (µM)): ↑30% @ 10; EC50 (rat mesenteric artery): 0.04 µM; relaxation of rat mesenteric artery (rat mesenteric artery): showed potency |
| CCCCCCCC(O)CC(=O)CCc1ccc2c(c1)OCO2 (stereo not shown) [5-hydroxy-1-(3,4-methylenedioxyphenyl)dodecan-3-one] |  |  |  |  |  |  | 2 | 225 ± 78 |  |  |  |  | EC50 (rat mesenteric artery): 0.69 µM; relaxation of rat mesenteric artery (rat mesenteric artery): showed potency |
| CCCCCC(O)CC(=O)CCc1ccc(O)c(OC)c1 (stereo not shown) [[6]-gingerol, 5-hydroxy-1-(4-hydroxy-3-methoxyphenyl)decan-3-one, reference compound] | 120 | 117 | 137 | 160 | > 100 |  |  |  | 121 | ↑60% @ 50 | 73.8 ± 6.6 |  | FORCE OF CONTRACT^n ↑ increase (guinea pig atria; @ 50 (µM)): ↑86% @ 50; HEART RATE ↑ increase (guinea pig atria; @ 50 (µM)): ↑10% @ 50 |
| CCCCCCCC(O)CC(=O)C=Cc1ccc(O)c(OC)c1 (stereo not shown) [[8]-dehydrogingerol, 5-hydroxy-1-(4-hydroxy-3-methoxyphenyl)dodecan-1-ene-3-one, reference compound] | 88 | 92 | 95 | 65 | ~50 |  |  |  | 93 |  |  |  | inhibition at 50 µM (SR Ca^2+-ATPase; @ 50 µM, read-out: SR Ca^2+-ATPase ↓ decrease or inhibition): 35%; FORCE OF CONTRACT^n ↑ increase (guinea pig atria; @ 25 (µM)): ↑80% @ 25; HEART RATE ↑ increase (guinea pig atria; @ 25 (µM)): ↑17% @ 25; time for tension to reach maximum after addition of a dose (guinea pig atria): a few mins |
| CCCCCCCC(O)CC(=O)CCc1ccc(O)cc1 (stereo not shown) [[8]-demethoxygingerol, 5-hydroxy-1-(4-hydroxyphenyl)dodecan-3-one] |  |  |  |  | > 100 | inactive | 2 | 243 ± 71 |  | ↑60% @ 50 |  | inactive |  |
| CCCCCCCC(O)CC(O)CCc1ccc(O)c(OC)c1 (stereo not shown) [[8]-gingerdiol, 1-(4-hydroxy-3-methoxyphenyl)dodecane-3,5-diol, reference compound] |  |  |  |  | > 100 | inactive | 2 | 246 ± 35 |  | ↑54% @ 50 | 82.6 ± 9 | inactive |  |
| CCCCCCCC(O)CC(=O)CCc1ccc(O)c(OC)c1 (stereo not shown) [[8]-gingerol, 5-hydroxy-1-(4-hydroxy-3-methoxyphenyl)dodecan-3-one, reference compound] | 158 | 165 | 200 | 139 | ~100 |  | 7 | 279 ± 111 | 139 |  | 70.4 ± 3.8 |  | SR Ca^2+-ATPase ↑ increase or stimulation (SR Ca^2+-ATPase; @ 25 µM): ↑100% @ 25; FORCE OF CONTRACT^n ↑ increase (guinea pig atria; @ 3 (µM)): ↑160% @ 3; HEART RATE ↑ increase (guinea pig atria; @ 3 (µM)): ↑31% @ 3; time to increased cardiac contractility after addition of the drug (guinea pig atria): 15 s |
| CCCCCCCC(O)CC(=O)CCc1ccc(OC)c(O)c1 (stereo not shown) [[8]-isogingerol, 5-hydroxy-1-(3-hydroxy-4-methoxyphenyl)dodecan-3-one, reference compound] |  |  |  |  | > 100 | inactive | 2 | 281 ± 42 |  | ↑64% @ 50 |  | inactive |  |
| CCCCCCCC(O)CC(=O)CCc1cccc(OC)c1O (stereo not shown) [[8]-orthogingerol, 5-hydroxy-1-(2-hydroxy-3-methoxyphenyl)dodecan-3-one] |  |  |  |  | > 100 | inactive | 2 | 245 ± 64 |  |  |  | inactive | SR Ca^2+-ATPase ↑ increase or stimulation (SR Ca^2+-ATPase; @ 100 µM): ↑40% @ 100 |
